{"source": "patent US10670605B2", "about": "“Cysteine reactive probes and uses thereof” (The Scripps Research Institute, priority 2015, dated 2020)", "test_in_all_cases": "isoTOP-ABPP of compound-treated primary human T cells", "format_in_all_cases": "cell-based", "key": {"[1]": {"biological_target": "T1, Cys residues in primary human T cells (Homo sapiens, UniProt Q96GW9)", "T1 sequence (Q96GW9 30-593)": "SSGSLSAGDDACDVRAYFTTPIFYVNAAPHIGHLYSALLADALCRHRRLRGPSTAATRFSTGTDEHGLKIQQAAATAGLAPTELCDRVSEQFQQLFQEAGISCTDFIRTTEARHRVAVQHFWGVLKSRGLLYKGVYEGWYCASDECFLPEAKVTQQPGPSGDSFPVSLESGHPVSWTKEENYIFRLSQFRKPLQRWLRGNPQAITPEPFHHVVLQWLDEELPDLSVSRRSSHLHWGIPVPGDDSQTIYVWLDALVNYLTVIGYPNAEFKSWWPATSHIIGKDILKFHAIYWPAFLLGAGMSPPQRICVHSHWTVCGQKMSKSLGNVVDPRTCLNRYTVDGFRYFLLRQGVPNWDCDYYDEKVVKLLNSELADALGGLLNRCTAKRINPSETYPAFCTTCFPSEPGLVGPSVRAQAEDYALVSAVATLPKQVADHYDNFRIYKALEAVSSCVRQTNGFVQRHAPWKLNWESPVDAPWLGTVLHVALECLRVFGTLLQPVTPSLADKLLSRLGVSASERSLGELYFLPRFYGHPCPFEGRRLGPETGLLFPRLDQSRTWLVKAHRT", "settings": "MARS2 C425 (Q96GW9)"}, "[2]": {"biological_target": "Cys residues in primary human T cells (Homo sapiens, UniProt O14976)", "sequence (O14976 whole entry)": "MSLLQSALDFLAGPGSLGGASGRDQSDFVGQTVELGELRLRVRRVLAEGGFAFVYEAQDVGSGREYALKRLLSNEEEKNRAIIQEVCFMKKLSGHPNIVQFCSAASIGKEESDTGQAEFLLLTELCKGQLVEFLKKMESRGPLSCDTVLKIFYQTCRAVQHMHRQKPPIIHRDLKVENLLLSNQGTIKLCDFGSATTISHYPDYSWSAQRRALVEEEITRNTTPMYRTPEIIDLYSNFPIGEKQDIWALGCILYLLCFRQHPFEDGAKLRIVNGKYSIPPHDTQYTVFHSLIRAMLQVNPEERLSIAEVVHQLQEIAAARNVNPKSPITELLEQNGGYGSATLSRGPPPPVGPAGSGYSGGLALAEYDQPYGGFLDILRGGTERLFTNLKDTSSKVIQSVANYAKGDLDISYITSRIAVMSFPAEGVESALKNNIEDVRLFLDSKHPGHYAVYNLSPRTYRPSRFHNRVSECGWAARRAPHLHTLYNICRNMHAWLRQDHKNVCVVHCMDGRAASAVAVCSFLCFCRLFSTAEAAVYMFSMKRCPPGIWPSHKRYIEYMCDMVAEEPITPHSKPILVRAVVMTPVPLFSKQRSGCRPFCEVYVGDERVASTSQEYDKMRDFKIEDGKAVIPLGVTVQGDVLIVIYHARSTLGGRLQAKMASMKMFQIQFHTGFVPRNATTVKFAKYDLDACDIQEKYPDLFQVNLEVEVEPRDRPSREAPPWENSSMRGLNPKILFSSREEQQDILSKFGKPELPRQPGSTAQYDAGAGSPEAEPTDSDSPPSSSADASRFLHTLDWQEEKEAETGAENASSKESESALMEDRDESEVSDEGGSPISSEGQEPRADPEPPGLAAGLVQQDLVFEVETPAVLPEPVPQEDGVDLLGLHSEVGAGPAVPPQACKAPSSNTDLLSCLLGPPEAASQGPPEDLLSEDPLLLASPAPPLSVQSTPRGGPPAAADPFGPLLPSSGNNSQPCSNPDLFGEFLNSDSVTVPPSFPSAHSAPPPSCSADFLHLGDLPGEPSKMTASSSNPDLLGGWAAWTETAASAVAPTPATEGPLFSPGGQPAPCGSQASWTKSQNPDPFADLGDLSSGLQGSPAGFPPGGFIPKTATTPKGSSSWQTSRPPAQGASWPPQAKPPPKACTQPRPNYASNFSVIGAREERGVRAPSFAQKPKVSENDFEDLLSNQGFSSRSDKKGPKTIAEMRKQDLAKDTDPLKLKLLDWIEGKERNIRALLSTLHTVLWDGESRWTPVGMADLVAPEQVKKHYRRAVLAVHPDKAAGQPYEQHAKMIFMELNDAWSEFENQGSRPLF", "settings": "GAK C87 (O14976)"}, "[3]": {"biological_target": "Cys residues in primary human T cells (Homo sapiens, UniProt P21580)", "sequence (P21580 whole entry)": "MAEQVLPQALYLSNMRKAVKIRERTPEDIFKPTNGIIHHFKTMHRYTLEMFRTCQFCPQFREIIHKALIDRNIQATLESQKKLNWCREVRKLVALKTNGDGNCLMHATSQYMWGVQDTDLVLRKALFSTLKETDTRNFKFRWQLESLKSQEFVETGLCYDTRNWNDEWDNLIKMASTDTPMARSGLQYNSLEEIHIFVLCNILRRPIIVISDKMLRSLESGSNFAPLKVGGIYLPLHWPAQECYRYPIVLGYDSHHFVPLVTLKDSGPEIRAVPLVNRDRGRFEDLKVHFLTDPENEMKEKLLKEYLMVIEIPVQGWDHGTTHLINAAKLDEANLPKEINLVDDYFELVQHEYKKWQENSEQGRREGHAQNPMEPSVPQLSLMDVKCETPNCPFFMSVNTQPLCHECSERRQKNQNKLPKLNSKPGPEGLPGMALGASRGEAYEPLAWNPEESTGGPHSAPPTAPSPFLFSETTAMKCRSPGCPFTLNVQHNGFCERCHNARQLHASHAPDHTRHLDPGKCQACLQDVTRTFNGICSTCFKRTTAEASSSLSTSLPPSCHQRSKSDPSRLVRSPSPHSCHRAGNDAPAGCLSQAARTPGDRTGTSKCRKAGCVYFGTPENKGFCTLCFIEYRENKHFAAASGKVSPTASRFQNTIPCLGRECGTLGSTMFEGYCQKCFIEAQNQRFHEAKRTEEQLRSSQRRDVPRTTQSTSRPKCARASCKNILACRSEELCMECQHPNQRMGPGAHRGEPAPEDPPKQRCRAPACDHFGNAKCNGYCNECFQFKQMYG", "settings": "TNFAIP3 C54 (P21580)"}, "[4]": {"biological_target": "Cys residues in primary human T cells (Homo sapiens, UniProt Q7Z4W1)", "sequence (Q7Z4W1 whole entry)": "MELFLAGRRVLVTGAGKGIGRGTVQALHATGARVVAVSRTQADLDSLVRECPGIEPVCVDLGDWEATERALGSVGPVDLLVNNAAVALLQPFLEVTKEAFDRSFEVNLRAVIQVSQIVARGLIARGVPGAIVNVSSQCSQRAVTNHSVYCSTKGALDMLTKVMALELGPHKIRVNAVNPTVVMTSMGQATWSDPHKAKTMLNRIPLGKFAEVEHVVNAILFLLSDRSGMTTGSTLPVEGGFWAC", "settings": "DCXR C244 (Q7Z4W1)"}, "[5]": {"biological_target": "T2, Cys residues in primary human T cells (Homo sapiens, UniProt P49588)", "T2 sequence (P49588 1-968)": "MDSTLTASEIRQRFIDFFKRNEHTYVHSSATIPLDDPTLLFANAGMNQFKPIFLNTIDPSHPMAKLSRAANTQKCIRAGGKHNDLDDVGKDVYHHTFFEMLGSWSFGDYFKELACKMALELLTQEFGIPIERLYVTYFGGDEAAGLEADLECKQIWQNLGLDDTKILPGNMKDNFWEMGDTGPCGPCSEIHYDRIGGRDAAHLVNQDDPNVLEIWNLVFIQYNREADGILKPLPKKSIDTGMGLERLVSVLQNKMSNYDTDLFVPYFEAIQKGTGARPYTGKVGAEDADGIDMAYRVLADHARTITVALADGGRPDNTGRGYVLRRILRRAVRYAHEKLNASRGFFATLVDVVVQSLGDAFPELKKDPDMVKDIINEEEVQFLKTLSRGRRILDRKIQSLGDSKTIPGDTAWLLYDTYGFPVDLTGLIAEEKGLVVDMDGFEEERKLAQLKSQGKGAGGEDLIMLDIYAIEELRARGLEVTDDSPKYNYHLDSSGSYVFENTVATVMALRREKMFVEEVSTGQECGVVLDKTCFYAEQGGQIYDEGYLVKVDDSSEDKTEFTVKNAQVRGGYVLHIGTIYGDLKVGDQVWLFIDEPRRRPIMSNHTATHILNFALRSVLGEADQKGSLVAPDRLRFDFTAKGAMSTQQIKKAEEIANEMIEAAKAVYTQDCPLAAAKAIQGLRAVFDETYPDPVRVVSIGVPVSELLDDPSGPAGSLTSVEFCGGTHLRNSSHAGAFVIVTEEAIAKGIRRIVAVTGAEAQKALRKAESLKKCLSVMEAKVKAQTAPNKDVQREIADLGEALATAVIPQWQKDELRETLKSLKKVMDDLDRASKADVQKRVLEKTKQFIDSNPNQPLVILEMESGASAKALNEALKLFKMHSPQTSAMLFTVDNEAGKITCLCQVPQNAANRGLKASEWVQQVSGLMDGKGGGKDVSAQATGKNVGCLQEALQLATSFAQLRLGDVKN", "settings": "AARS C773 (P49588)"}, "[6]": {"biological_target": "T3, Cys residues in primary human T cells (Homo sapiens, UniProt Q9Y6C9)", "T3 sequence (Q9Y6C9 1-303)": "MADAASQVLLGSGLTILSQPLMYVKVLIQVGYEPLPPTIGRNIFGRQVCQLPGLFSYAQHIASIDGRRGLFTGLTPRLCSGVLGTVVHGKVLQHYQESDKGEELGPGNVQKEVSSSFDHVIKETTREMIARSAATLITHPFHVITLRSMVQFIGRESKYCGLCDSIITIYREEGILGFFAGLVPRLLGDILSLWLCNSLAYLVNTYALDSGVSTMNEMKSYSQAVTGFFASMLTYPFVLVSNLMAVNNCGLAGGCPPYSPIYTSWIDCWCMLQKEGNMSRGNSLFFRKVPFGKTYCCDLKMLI", "settings": "MTCH2 C296 (Q9Y6C9)"}, "[7]": {"biological_target": "T4, Cys residues in primary human T cells (Homo sapiens, UniProt P00813)", "T4 sequence (P00813 1-363)": "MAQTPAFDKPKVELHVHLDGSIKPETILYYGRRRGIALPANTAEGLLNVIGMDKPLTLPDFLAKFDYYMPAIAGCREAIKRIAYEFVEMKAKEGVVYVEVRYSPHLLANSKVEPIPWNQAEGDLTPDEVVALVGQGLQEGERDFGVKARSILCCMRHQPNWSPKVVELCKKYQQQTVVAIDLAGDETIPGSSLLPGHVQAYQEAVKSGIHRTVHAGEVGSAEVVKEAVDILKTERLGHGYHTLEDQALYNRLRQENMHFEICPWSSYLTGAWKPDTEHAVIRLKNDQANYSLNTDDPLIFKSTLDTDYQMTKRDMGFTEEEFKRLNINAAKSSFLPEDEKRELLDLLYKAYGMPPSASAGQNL", "settings": "ADA C75 (P00813)"}}, "note": "Structures can show the parent of a compound that is named as a salt."}
{"smiles": "COC(=O)/C=C/C(=O)OC", "note": "[DMF, dimethyl fumarate]", "values": [{"measurement": "R value (DMSO/DMF)", "setting": "[1]; DMF 10 μM 4h", "result": 1.84}, {"measurement": "R value (DMSO/DMF)", "setting": "[1]; DMF 25 μM 4h", "result": 2.86}, {"measurement": "R value (DMSO/DMF)", "setting": "[1]; DMF 50 μM 1h", "result": 2.23}, {"measurement": "R value (DMSO/DMF)", "setting": "[1]; DMF 50 μM 2h", "result": 4.16}, {"measurement": "R value (DMSO/DMF)", "setting": "[1]; DMF 50 μM 4h", "result": 5.3}, {"measurement": "R value (DMSO/DMF)", "setting": "[2]; DMF 10 μM 4h", "result": 1.36}, {"measurement": "R value (DMSO/DMF)", "setting": "[2]; DMF 50 μM 2h", "result": 4.79}, {"measurement": "R value (DMSO/DMF)", "setting": "[3]; DMF 10 μM 4h", "result": 1.58}, {"measurement": "R value (DMSO/DMF)", "setting": "[3]; DMF 50 μM 2h", "result": 5.34}, {"measurement": "R value (DMSO/DMF)", "setting": "[4]; DMF 10 μM 4h", "result": 2.3}, {"measurement": "R value (DMSO/DMF)", "setting": "[4]; DMF 50 μM 1h", "result": 1.29}, {"measurement": "R value (DMSO/DMF)", "setting": "[4]; DMF 50 μM 2h", "result": 2.76}, {"measurement": "R value (DMSO/DMF)", "setting": "[4]; DMF 50 μM 4h", "result": 4.24}, {"measurement": "R value (DMSO/DMF)", "setting": "[5]; DMF 10 μM 4h", "result": 2.84}, {"measurement": "R value (DMSO/DMF)", "setting": "[5]; DMF 50 μM 1h", "result": 9.34}, {"measurement": "R value (DMSO/DMF)", "setting": "[5]; DMF 50 μM 2h", "result": 10.16}, {"measurement": "R value (DMSO/DMF)", "setting": "[5]; DMF 50 μM 4h", "result": 12.75}, {"measurement": "R value (DMSO/DMF)", "setting": "[6]; DMF 10 μM 4h", "result": 1.68}, {"measurement": "R value (DMSO/DMF)", "setting": "[6]; DMF 50 μM 1h", "result": 1.81}, {"measurement": "R value (DMSO/DMF)", "setting": "[6]; DMF 50 μM 2h", "result": 2.44}, {"measurement": "R value (DMSO/DMF)", "setting": "[6]; DMF 50 μM 4h", "result": 4.3}, {"measurement": "R value (DMSO/DMF)", "setting": "[7]; DMF 10 μM 4h", "result": 2.29}, {"measurement": "R value (DMSO/DMF)", "setting": "[7]; DMF 50 μM 1h", "result": 2.51}, {"measurement": "R value (DMSO/DMF)", "setting": "[7]; DMF 50 μM 2h", "result": 5.08}, {"measurement": "R value (DMSO/DMF)", "setting": "[7]; DMF 50 μM 4h", "result": 20}]}
